# Test results as given in patent US20240391923A1, “METHIONINE ADENOSYLTRANSFERASE 2A INHIBITOR FOR TREATING MTAP DELETION-TYPE CANCER” (SUZHOU GENHOUSE BIO CO., LTD., priority 2022, published 2024).
# Tested on: Human pancreatic cancer cells KP-4
# Assay: Mouse xenograft tumor pharmacodynamic model, KP-4
# Type: in vivo
# Conditions: KP-4 xenograft, 29 days of administration
# Description: In this example, the in vivo efficacy of the compound in a mouse xenograft tumor model after intragastric (PO) administration was tested.
# Human pancreatic cancer cells KP-4 were cultured in monolayer in vitro under the condition of 1640 medium containing […] and […] and streptomycin, and the culture was carried out at 37° C. with 5% CO2. The cells were digested with trypsin three times a week for passaging. When the saturation degree of the cells was 80-90%, the cells were collected, counted and inoculated. 0.1 mL (5×10^6 cells) of KP-4 cells were subcutaneously inoculated on the right back of each mouse. On day 34 after inoculation of the cells, the mean tumor volume reached 154 mm^3. The mice were randomly grouped for administration and intragastrically dosed once daily. Changes in body weight and tumor volume were recorded. After 29 days of administration, the experiment was ended. Tumor volume changes and mouse body weight changes were counted and analyzed. AG270 (CAS: 2201056-66-6) was the positive control compound.
smiles,measurement,setting,value
Cn1cc2c(n1)c(=O)n(-c1cccc3[nH]ncc13)c1cc(Cl)c(F)cc21 [Compound B257],Tumor growth inhibition percentage (TGI),PO 0.3 mg/kg once a day,once a day TGI = 66.25%
same,Tumor growth inhibition percentage (TGI),PO 1 mg/kg once a day,once a day TGI = 90.06%
same,Tumor growth inhibition percentage (TGI),PO 3 mg/kg once a day,once a day TGI = 97.08%
